Experimental data taken from US8197860B2, “Method for enhancing nutrient absorption with astragalosides” (Nuliv Holding Inc., priority 2005, dated 2012).

Assays:
Assay type in all cases: cell-based, human
[1] = test system: Caco-2 cell monolayer; test: Arginine absorption assay (transport across Caco-2 cell monolayer); parameters: key to * (regulatory effect on arginine transport): ↑: the arrows that point up represent the enhancing effect on the arginine transport; settings: for Regulatory effects on the arginine transport across the Caco2 cell monolayer: Table 3 summary; for Transport rate (arginine): 10 mM L-arginine apical
Method: (§1) To evaluate the effect of the isolated astragaloside compound on the uptake of nutrient substances across the intestinal lumen, Caco-2 cells were grown on permeable filter as an experimental model. Caco2 cells originate from human colonic adenocarcinoma and spontaneously differentiate into an enterocyte-like phenotype after two weeks. The Caco-2 cell line, derived from a human colorectal carcinoma, has been used as an in vitro model system for studying drug absorption in gastrointestinal tract. These cells form monolayers with well-developed tight-junctions, and have been evaluated in details as an in vitro model to study both transcellular transport of nutrients and drugs in intestinal lumen.
(§2) Caco-2 cells were obtained from the ATCC (American Type Culture Collection). The cells were maintained in Dulbecco's modified Eagle medium (DMEM) containing 4.5 g/L glucose and 25 mM Hepes, supplemented with 10% fetal calf serum, 100 U/mL penicillin G and […]. The medium was changed every second day. The cells were routinely checked for Mycoplasma in monthly intervals. Caco-2 cells were cultured on semi-permeable membranes to differentiate into a highly functionalized epithelial barrier with remarkable morphological and biochemical similarity to the small intestinal columnar epithelium. The Caco-2 cell monolayers could therefore be used to study the membrane transport properties of many compounds. To trypsinize the cells, the culture dish was washed once with phosphate-buffered saline (PBS) followed by adding trypsine-EDTA for 10 minutes. The trypsinized cells were separated and filtered into single cells using a 35-μm strainer cap (Falcon 2235) before being seeded for further experiments.
(§3) In measuring transport of arginine across the Caco-2 cell monolayer, both sides of the transwells were washed with arginine incubation buffer consisting of: 137 mM NaCl, 10 mM Hepes, 0.3 mM NaH2PO4, 0.3 mM K2HPO4, 5.4 mM KCl, 2.8 mM CaCl2, 1 mM MgSO4, 10 mM glucose, adjusted to pH 7.4. Then, the cell layer was preincubated in the incubation buffer at 37° C. for 1 h. The volume of incubation buffer was 0.2 mL and 0.9 mL in the apical and basolateral chambers, respectively. The cells were replaced with fresh incubation medium in both chambers prior to the transport experiment. The transport experiment was initiated by replacing the incubation solution on the apical side with solution containing 10 mM of L-arginine in which 0.125 μCi/mL of L-[^3H]-arginine was included. At designated time intervals, 10 μL-solution samples were removed from the basolateral side and radioactivity of each sample was counted using a microplate liquid scintillation counter (TopCount, Packard NXT). During the experiment, when a 10 μL-solution sample was removed from the basolateral side every time, 10 μL buffer was supplemented to keep the volume constant. The uptake of [^3H]-mannitol was used to correct for nonspecific transport of molecules across the monolayer membrane. Results were expressed as the nanomoles of arginine transport across the Caco-2 cell monolayers with respect to time in minutes (nmol/min).

[2] = test system: Caco2 cells; test: Folate uptake assay; parameters: key to * (regulatory effect on folate uptake): ↑: the arrows that point up represent the enhancing effect on folate uptake; settings: compound 0.1 μM; for Uptake rate (folate): 2 days, 5 μM folate, pH 6.0
Method: as §1, §2
Caco-2 cells (5×10^4) were seeded in a 48-well plate and maintained in culture medium (DMEM with 10% FBS, 1% nonessential amino acids, L-glutamine, penicillin G (100 U/mL), streptomycin (10 μg/mL), and amphotericin B (2.5 μg/mL) in a 37° C. incubator for 10 days for the cells to differentiate. The culture medium was changed once every two days. The cells were then washed with PBS before replenishing with the culture medium containing 5% FBS and various astragalosides at the indicated concentrations (0.01, 0.1 and 1 μM) for 48 hours. The Caco2 cells were washed out of remaining glucose with PBS and replaced in the glucose buffer (80 mM NaCl, 100 mM mannitol, 20 mM Tris-HCl, pH 7.4, 3 mM K2HPO4, 1 mM CaCl2, 1 mg/mL BSA) for 1 hour. Glucose uptake was initiated by replacing the glucose buffer with 0.2 ml of glucose buffer containing 2 μCi/mL of ^14C-glucose and unlabeled cold glucose to give a final glucose concentration of 25 mM. Glucose uptake was stopped by removing the glucose buffer and washing with PBS at designated time intervals. The cells were lysed in 0.2 mL of 0.2 N NaOH, and 20 μL of the cell lysate were transferred to the filter-bottomed UniFilter plates (Perkin-Elmer, Wellesley, Mass., USA) and dried in a vacuum oven at 37° C. The bottom of the UniFilter plate was sealed and 25 μL of the counting solution were added into each well. Adhesive plate sealers were used in place of the lids and radioactivity of each sample was counted using the microplate liquid scintillation counter (TopCount, Packard NXT, Packard BioScience Company, Meriden, Conn., USA). The amount of glucose accumulated in the cells was calculated and normalized to protein concentration, and uptake rate was expressed as nanomoles of glucose per minutes per milligram of cell protein (nmol/min/mg). Protein concentration was determined by a standard Bicinchoninic acid (BCA) protein assay. Nonspecific glucose uptake was measured by adding 2 μCi of L-[^14C]-glucose and subtracting from each determination to obtain specific glucose uptake.
The Caco2 cells were subjected to folate uptake test in a manner similar to that described in the glucose uptake assay in Example 1 above. […]

[3] = test system: Caco-2 cell monolayer; test: Tryptophan absorption assay (transport across Caco-2 cell monolayer); parameters: key to * (regulatory effect on tryptophan transport): ↑: the arrows that point up represent the enhancing effect on the tryptophan transport; settings: for Regulatory effects on the tryptophan transport across the Caco2 cell monolayer: Table 4 summary; for Tryptophan transport rate: concentration from 0.01 μM to 1 mM
Method: as §1, §2, §3
The experimental procedures similar to those in Example 2 were used for measuring the uptake of tryptophan molecules across the Caco-2 membrane, except using a tryptophan incubation buffer consisting of 137 mM choline chloride, 10 mM Hepes, 0.6 mM KH2PO4, 5.4 mM KCl, 2.8 mM CaCl2, 1 mM MgSO4, and 10 mM glucose, and having its pH adjusted to 7.4. Results were expressed as the nanomoles of tryptophan transport across the Caco-2 cell monolayers with respect to time in minutes (nmol/min).

[4] = concentration from 0.01 μM to 1 μM

SMILES | Regulatory effects on the arginine transport across the Caco2 cell monolayer [1] | * (regulatory effect on arginine transport) ([1]; compound 0.01 μM) | Percentage (arginine transport, control = 100) ([1]; compound 0.01 μM) [%] | Transport rate (arginine) ([1]; compound 0.01 μM) [nmol/min] | * (regulatory effect on arginine transport) ([1]; compound 0.1 μM) | Percentage (arginine transport, control = 100) ([1]; compound 0.1 μM) [%] | Transport rate (arginine) ([1]; compound 0.1 μM) [nmol/min] | * (regulatory effect on folate uptake) [2] | Percentage (folate uptake vs own control) [2] [%] | Uptake rate (folate) [2] [pmol/mg/min] | Regulatory effects on the tryptophan transport across the Caco2 cell monolayer [3] | * (regulatory effect on tryptophan transport) ([3]; compound 0.01 μM) | Percentage (tryptophan transport, control = 100) ([3]; compound 0.01 μM) [%] | Transport rate (tryptophan) ([3]; compound 0.01 μM) [nmol/min] | * (regulatory effect on tryptophan transport) ([3]; compound 0.1 μM) | Percentage (tryptophan transport, control = 100) ([3]; compound 0.1 μM) [%] | Transport rate (tryptophan) ([3]; compound 0.1 μM) [nmol/min] | Tryptophan transport rate [3] | * (regulatory effect on arginine transport) ([1]; compound 1 μM) | Percentage (arginine transport, control = 100) ([1]; compound 1 μM) [%] | also measured
CC(=O)O[C@H]1[C@H](O[C@H]2CC[C@]34C[C@]35CC[C@]3(C)[C@@H]([C@@]6(C)CC[C@@H](C(C)(C)O)O6)[C@@H](O)C[C@@]3(C)[C@@H]5C[C@H](O[C@@H]3O[C@H](CO)[C@@H](O)[C@H](O)[C@H]3O)[C@H]4C2(C)C)OC[C@@H](O)[C@@H]1O [AS2, astragaloside II] | had regulatory effects on the arginine transport | ↑ | 151.94 | 16.2358 ± 1.6190 | ↑ | 161.69 | 17.2771 ± 1.6170 | ↑ | 129.05 | 69.970 ± 3.7720 | had regulatory effects on the tryptophan transport | ↑ | 115.07 | 10.290 ± 0.4115 | ↑ | 130.28 | 11.650 ± 0.5789 | increased | – | – | * (regulatory effect on arginine transport) ([1]; compound 0.001 μM): ↑; Percentage (arginine transport, control = 100) ([1]; compound 0.001 μM): 136.97%; Transport rate (arginine) ([1]; compound 0.001 μM): 14.6355 ± 1.2910 nmol/min; Arginine transport rate ([1]; concentration from 0.001 μM to 0.1 μM): increased
CC(C)(O)[C@@H]1CC[C@](C)([C@H]2[C@@H](O)C[C@@]3(C)[C@@H]4C[C@H](O)[C@H]5C(C)(C)[C@@H](O[C@@H]6OC[C@@H](O)[C@H](O)[C@H]6O[C@@H]6O[C@H](CO)[C@@H](O)[C@H](O)[C@H]6O)CC[C@@]56C[C@@]46CC[C@]23C)O1 [AS3, astragaloside III] | had regulatory effects on the arginine transport | ↑ | 121.74 | 13.0084 ± 1.0510 | ↑ | 124.33 | 13.2858 ± 1.4110 | ↑ | 145.41 | 80.380 ± 6.2170 | had regulatory effects on the tryptophan transport | ↑ | 159.81 | 14.290 ± 1.3910 | ↑ | 151.98 | 13.590 ± 1.0080 | increased | ↑ | 148.18 | Transport rate (arginine) ([1]; compound 1 μM): 15.8341 ± 1.0000 nmol/min; Arginine transport rate [1, 4]: increased; * (regulatory effect on tryptophan transport) ([3]; compound 1 μM): ↑; Percentage (tryptophan transport, control = 100) ([3]; compound 1 μM): 270.63%; Transport rate (tryptophan) ([3]; compound 1 μM): 24.200 ± 1.0260 nmol/min
CC(=O)O[C@H]1[C@H](O[C@H]2CC[C@]34C[C@]35CC[C@]3(C)[C@@H]([C@@]6(C)CC[C@@H](C(C)(C)O)O6)[C@@H](O)C[C@@]3(C)[C@@H]5C[C@H](O[C@@H]3O[C@H](CO)[C@@H](O)[C@H](O)[C@H]3O)[C@H]4C2(C)C)OC[C@@H](OC(C)=O)[C@@H]1O [IsoAS1, isoastragaloside I] | had regulatory effects on the arginine transport | ↑ | 135.49 | 14.4776 ± 0.5519 | ↑ | 199.44 | 21.3107 ± 1.5130 | ↑ | 144.83 | 73.460 ± 3.6060 | had regulatory effects on the tryptophan transport | ↑ | 115.97 | 10.370 ± 0.8808 | ↑ | 149.52 | 13.370 ± 0.3301 | increased | ↑ | 135.41 | Transport rate (arginine) ([1]; compound 1 μM): 14.4734 ± 1.1350 nmol/min; Arginine transport rate [1, 4]: increased; * (regulatory effect on tryptophan transport) ([3]; compound 1 μM): ↑; Percentage (tryptophan transport, control = 100) ([3]; compound 1 μM): 118.54%; Transport rate (tryptophan) ([3]; compound 1 μM): 10.600 ± 0.8058 nmol/min
